Source: US20080139386A1 (priority 2004, published 2008)
Like-named read-outs stand apart in the source and are kept apart here.

System: Pyricularia oryzae
Assay type: in vivo
Conditions: rice seedlings cultivar Tai-Nong 67, protective, inoculated next day, assessed after six days

SMILES | Efficacy in % of the untreated control (4 ppm active compound in the spray liquor) [%] | Efficacy in % of the untreated control (1 ppm active compound in the spray liquor) [%] | Efficacy in % of the untreated control (16 ppm active compound in the spray liquor) [%]
CC1CCN(c2c(-c3c(F)cc(F)cc3F)c(Cl)nc3ncnn23)CC1 [compound I, 5-chloro-7-(4-methylpiperidin-1-yl)-6-(2,4,6-trifluorophenyl)-[1,2,4]triazolo[1,5-a]pyrimidine] | 31 | – | –
O=C(Nc1ccccc1)N(Cc1ccc(Cl)cc1)C1CCCC1 [compound II, 1-(4-chlorobenzyl)-1-cyclopentyl-3-phenylurea] | – | 0 | 0
